Residues, ends and D or L forms follow the SMILES beside them.
Assays:
[1] = in vitro; conditions: human, Caco-2
Procedure: Caco-2 permeability tests were performed as described by Wynendaele et al. [7], based on the protocol of Hubatsch et al. [14]. Briefly, Caco-2 cells were seeded on 12-well polycarbonate membrane filters (0.4 μm pore size, Corning, Teltow, Germany) and left for differentiation during 21–29 days. […] Samples were quantitatively analysed using UPLC-MS/MS. Four independent biological replicates were used (different days and well-plates), with each between 3 and 6 technical replicates (i.e., different wells on one plate/in one day).

[2] = system: human red blood cells; conditions: human RBC, 1 μM QSP, 1 h, 37 °C
Procedure: In vitro haemolysis of Q007, Q010, Q017 and Q212 was determined using previously described procedures. Briefly, freshly obtained human blood was centrifuged and the precipitate washed using freshly prepared 150 mM NaCl solution. After the final centrifugation step, the precipitate was resuspended into 100 mM sodium phosphate buffer pH 7.4. A 1 to 10 RBC solution was incubated for 1 h at 37 °C with QSP at a concentration of 1 μM. The absorbance of the supernatant was measured at 405 nm and corrected for the blank absorbance. The percent haemolysis was then calculated using the following equation: [(Asample − Ablank)/(Apositive control − Ablank)] × 100, with 1% (v/v) Triton X-100 being the positive control.

[3] = in vitro; conditions: human plasma (500 µL) in Krebs-Henseleit buffer pH 7.4, 100 µg peptide, 37 °C shaking, 0, 30 and 120 min, UPLC-PDA, first-order kinetics; for half-life: human, plasma, pH 7.4, Plasma Half-Life
Procedure: In vitro chemical and metabolic stability of Q007, Q010, Q017 and Q212 was determined in cell medium and human plasma, respectively, using previously described procedures. In brief, 100 µg of peptide was incubated in Krebs–Henseleit buffer pH 7.4 with cell medium/plasma (500 µL) at 37 °C while shaking. At predetermined time intervals (i.e., 0, 6 and 24 h for cell medium; 0, 30 and 120 min for plasma), aliquots were immediately transferred into microtubes containing 1:1 volume of 1% (v/v) trifluoroacetic acid solution in water. The enzyme reaction was further stopped by heating the solution at 95 °C for 5 min. Next, the samples were centrifuged to precipitate the denatured proteins and the supernatant analysed using UPLC-PDA (Waters, Milford, MA, USA). Appropriate placebo solutions were similarly prepared. Assuming first-order kinetics, the rate constant k was obtained from ln(Pt/Pt0) = −kt, from which the half-life was determined as T1/2 = ln(2)/k.

CC(C)C[C@H](NC(=O)[C@H](CC(=O)O)NC(=O)[C@H](C)N)C(=O)N1CCC[C@H]1C(=O)N[C@@H](Cc1ccccc1)C(=O)N[C@@H](CCC(=O)O)C(=O)N[C@@H](Cc1ccccc1)C(=O)O [Q010, PapR7I] (H-ADLPFEF-OH)
Papp A→B at 30 min [1]: 0.0129 ×10⁻⁶ cm/s
haemolysis-inducing effect [2]: lack of haemolysis-inducing effects
Plasma Half-Life [3]: 9.2 h
half-life [3]: 9 h

C[C@@H](O)[C@H](NC(=O)[C@H](Cc1c[nH]c2ccccc12)NC(=O)[C@@H]1CCCN1C(=O)[C@H](CO)NC(=O)[C@@H](N)Cc1ccc(O)cc1)C(=O)N[C@@H](CC(N)=O)C(=O)N[C@@H](Cc1ccccc1)C(N)=O [Q007, RNAIII Inhibiting Peptide (RIP)] (H-YSPWTNF-NH2)
haemolysis-inducing effect [2]: did not induce haemolysis
Plasma Half-Life [3]: 2.2 h
half-life [3]: 2 h

CC[C@H](C)[C@H](NC(=O)[C@H](CC(C)C)NC(=O)[C@H](C)N)C(=O)N[C@@H](CC(C)C)C(=O)N[C@H](C(=O)N[C@@H](CC(C)C)C(=O)N[C@H](C(=O)N[C@@H](CO)C(=O)O)C(C)C)[C@@H](C)O [Q017, iPD1] (H-ALILTLVS-OH)
half-life [3]: 2.5 h

CC(C)[C@H](N)C(=O)N1CCC[C@H]1C(=O)N[C@@H](Cc1ccccc1)C(=O)N[C@@H](CCC(=O)O)C(=O)N[C@@H](Cc1ccccc1)C(=O)O [Q212, PapR5III] (H-VPFEF-OH)
half-life [3]: 0.2 h
